One series deals with T1, Wistar rat heart PBR (Rattus norvegicus, UniProt P16257).
T1 construct: from tissue; host or cells: Wistar rat heart
The series is described as follows: In vitro potency assay: competition against 0.3 nM [3H]PK-11195 binding. As for the experimental part: Non-radioactive analogues of in vivo imaging agents of the invention were tested.
Each test compound (dissolved in 50 mM Tris-HCl, pH 7.4, 10 mM MgCl2 containing 1% DMSO) competed for binding to Wistar rat heart PBR against 0.3 nM [^3H] […] The reaction, was carried out in 50 mM Tris-HCl, pH 7.4 10 mM MgCl2 for 15 minutes at 25° C.

A short description of series [1]: In vivo biodistribution method. To be noted: for Brain 2 min / OB 30 min: adult male Wistar rats, 1-3 MBq via lateral tail vein; for Brain 2 min: 2 min after injection; for OB 30 min: olfactory bulb.
Method: Imaging agents of the invention were tested in an in vivo biodistribution model.
Adult male Wistar rats (200-300 g) were injected with 1-3 MBq of test compound via the lateral tail vein. At 2, 10, 30 or 60 min (n=3) after injection, rats were euthanised and tissues or fluids were sampled for radioactive measurement on a gamma counter.

As usually defined, the Ki is the dissociation constant of the complex between target and ligand, obtained from inhibition or displacement.

Like-named read-outs stand apart in the source and are kept apart here.

On Wistar rat heart PBR, `CCN(CC)C(=O)C1CCCc2c1c1cc(F)ccc1n2CC[18F]` (centres unmarked) [compound 9] returned a Ki of 3.79 nM. For the same molecule, the “Brain 2 min” value in series [1] amounted to 0.56 % ID/g. For the same molecule, the “OB 30 min” value in series [1] (30 min after injection) was 0.41 % ID/g.
For the molecule `O=C(C1CCCc2c1c1ccccc1n2CC[18F])N1CCCCC1` (centres unmarked) [compound 6], the Ki on Wistar rat heart PBR is 18.3 nM.
For `CCN(CC)C(=O)C1CCCc2c1c1c(OC)cccc1n2CC[18F]` (centres unmarked) [compound 5], the Ki at Wistar rat heart PBR (non-radioactive analogues, vs 0.3 nM [3H]PK-11195, 50 mM Tris-HCl pH 7.4, 10 mM MgCl2, 15 minutes at 25° C., read-out: Ki) was 1.47 nM.
On Wistar rat heart PBR, `CN(Cc1ccccc1)C(=O)C1CCCc2c1c1ccccc1n2CC[18F]` (centres unmarked) [compound 7] returned a Ki of 1.25 nM. Moreover, in series [1], the “Brain 2 min” value is given as 0.55 % ID/g. In series [1] (30 min after injection), the “OB 30 min” value is reported as 0.34 % ID/g. Besides, the “OB:Str 30 min” value in series [1] (ratio olfactory bulb:striatum, 30 min after injection, Wistar rats) was determined as 3.40.
As to `CCN(CC)C(=O)C1CCCc2c1c1c(F)cccc1n2CC[18F]` (centres unmarked) [compound 10], in series [1], the “Brain 2 min” value was 0.50 % ID/g. The “OB 30 min” value in series [1] (30 min after injection) came to 0.51 % ID/g.

For the origin of these results see patent US9168317B2, “In vivo imaging method of mood disorders” (GE Healthcare Limited, priority 2010, dated 2015).
